Test results as given in patent US20060211668A1, “Use of ciclesonide for the treatment of inflammatory bowel diseases” (ALTANA PHARMA AG, priority 2003, published 2006).

Legend:
[1] = test system: TNBS-induced Colits in the rat; experiment: TNBS-induced colitis in the rat, intrarectal administration; assay type: in vivo; conditions: for max Colon width: lowest dose that impacts the parameter to a relevant extent (inhibition of the TNBS-induced increase): TNBS 30 mg/kg rectally, compound intrarectal twice daily days -1 to +2, sacrificed day 2; for Thymus weight: lowest dose that impacts the parameter to a relevant extent (amplification of the TNBS-induced decrease) / Weight of adrenal glands: lowest dose that impacts the parameter to a relevant extent (inhibition of the TNBS-induced increase): TNBS colitis, intrarectal twice daily, side effect parameter
Protocol: As an animal model of Inflammatory Bowel Disease, the TNBS-induced Colits in the rat had been used.
48 h fasted rats (220-250 g b.w.) received rectally 0,9 ml of a solution consisting of 30% ethanol, 30 mg/kg TNBS (Trinitrobenzoesulfonic acid) in an oral distance of 8-9 cm from the anus. Compound administration days −1 to +2. Animals were sacrified on day 2. For intrarectal administration the compounds were solved in 1% ethanol, 10% Propyleneglycol and 20% Cyclodextrin. The used range of concentrations was identical for all compounds. Intrarectal administration schedule: twice daily. Compounds used: Ciclesonide and for comparison, Budesonide and Dexamethasone.
As parameters for the estimation of the pharmacological effects of the compounds, max. colon width had been used. As for the estimation of potential side effects, the weights of thymus and adrenal glands have been registrated.
The efficacy of a treatment was calculated on the reference of controls that received either no TNBS or TNBS rectally, establishing the range of 100 to 0% inhibition, respectively, in the drug screening.

[2] = human; cited from earlier work

| Structure (SMILES) | max Colon width: lowest dose that impacts the parameter to a relevant extent (inhibition of the TNBS-induced increase) [1] | Thymus weight: lowest dose that impacts the parameter to a relevant extent (amplification of the TNBS-induced decrease) ([1]; highest assessed dose 6.9) | Weight of adrenal glands: lowest dose that impacts the parameter to a relevant extent (inhibition of the TNBS-induced increase) ([1]; highest assessed dose 6.9) | Thymus weight: lowest dose that impacts the parameter to a relevant extent (amplification of the TNBS-induced decrease) ([1]; highest assessed dose 6.9, listed as ciclesonide) [μmol/animal] | Oral bioavailability [2] | Weight of adrenal glands: lowest dose that impacts the parameter to a relevant extent (inhibition of the TNBS-induced increase) ([1]; highest assessed dose 6.9, listed as budenoside) |
| --- | --- | --- | --- | --- | --- | --- |
| CC(C)C(=O)OCC(=O)[C@@]12O[C@H](C3CCCCC3)O[C@@H]1C[C@H]1[C@@H]3CCC4=CC(=O)C=C[C@]4(C)[C@H]3[C@@H](O)C[C@@]12C [Ciclesonide, [11β,16α(R)]-16,17-[(cyclohexylmethylene)bis(oxy)]-11-hydroxy-21-(2-methyl-1-oxopropoxy)pregna-1,4-diene-3,20-dione] | 2.3 μmol/animal | n.e. @ 6.9 μmol/animal | 2.3 μmol/animal | > 6.9 | below 1% |  |
| CCCC1O[C@@H]2C[C@H]3[C@@H]4CCC5=CC(=O)C=C[C@]5(C)[C@H]4[C@@H](O)C[C@]3(C)[C@]2(C(=O)CO)O1 (stereo partly shown) [Budesonide] | 2.3-6.9 μmol/animal | 2.3 μmol/animal | n.e. @ 6.9 μmol/animal |  |  | does not reverse |
| C[C@@H]1C[C@H]2[C@@H]3CCC4=CC(=O)C=C[C@]4(C)[C@@]3(F)[C@@H](O)C[C@]2(C)[C@@]1(O)C(=O)CO [Dexamethasone] | 0.69 μmol/animal |  |  |  |  |  |
